The term inhibition denotes the relative decrease from the control value, in per cent. By Kd is commonly meant a measure of binding affinity in units of concentration.

From patent US5885987A, “Phenylene derivatives” (Kowa Co., Ltd., priority 1996, dated 1999) come the findings set out here.

SMILES strings stand for the structures.

One assay addresses T1, H1 receptor (Cavia porcellus, UniProt P31389).
T1 construct: guinea pig cerebromembranous protein; from tissue; host or cells: guinea pig cerebral (brain) membranes
The assay can be described thus: H1 receptor binding inhibition test ([^3 H]mepyramin, guinea pig cerebromembranous protein). Particulars: for inhibition at 100 µM: a: 100 μM; for inhibition at 100 µM / inhibition at 10 µM: read-out: H1 receptor (%), inhibition rate; for Kd: read-out: H1 receptor, dissociation constant KD; for inhibition at 10 µM: b: 10 μM. A digest of the protocol: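 [³H]Mepyramine binding to guinea pig brain membranes was stopped with ice-cold phosphate buffer and filtered, and bound radioactivity was measured by liquid scintillation. Nonspecific binding was defined with 10^-4 M R(-)dimethindene. IC50 came from concentration-response data and was converted to a dissociation constant by Cheng-Prusoff.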

The target of a further assay is T2, LTD4 receptor (Cavia porcellus, UniProt Q2NNR5).
T2 construct: guinea pig pulmomembranous protein; from tissue; host or cells: guinea pig lung membranes
T2 sequence (Q2NNR5 1-340): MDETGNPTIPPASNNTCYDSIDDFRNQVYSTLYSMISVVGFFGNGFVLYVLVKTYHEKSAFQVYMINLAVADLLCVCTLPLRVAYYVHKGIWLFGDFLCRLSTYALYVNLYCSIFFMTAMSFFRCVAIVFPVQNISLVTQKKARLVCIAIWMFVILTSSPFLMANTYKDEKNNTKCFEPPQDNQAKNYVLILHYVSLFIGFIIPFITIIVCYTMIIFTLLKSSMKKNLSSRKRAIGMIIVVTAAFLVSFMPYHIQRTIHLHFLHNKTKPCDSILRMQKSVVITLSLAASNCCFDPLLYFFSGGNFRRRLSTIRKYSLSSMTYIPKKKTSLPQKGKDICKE
The assay can be described thus: LTD4 receptor binding inhibition test ([^3 H]leukotriene D4, guinea pig pulmomembranous protein). To be noted: for inhibition at 100 µM: a: 100 μM; for inhibition at 100 µM / inhibition at 10 µM: read-out: LTD4 receptor (%), inhibition rate; for inhibition at 10 µM: b: 10 μM; for Kd: read-out: LTD4 receptor, dissociation constant KD. In a few lines: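 Filtration binding with [3H]LTD4 on guinea pig lung membranes; reaction stopped with ice-cold Tris-HCl/NaCl buffer (10 mM/100 mM, pH 7.5), bound radioactivity by scintillation counting. Nonspecific binding defined with 2 μM leukotriene D4. IC50 from dose-response, converted to dissociation constant by Cheng-Prusoff.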

T1 sequence (P31389 whole entry): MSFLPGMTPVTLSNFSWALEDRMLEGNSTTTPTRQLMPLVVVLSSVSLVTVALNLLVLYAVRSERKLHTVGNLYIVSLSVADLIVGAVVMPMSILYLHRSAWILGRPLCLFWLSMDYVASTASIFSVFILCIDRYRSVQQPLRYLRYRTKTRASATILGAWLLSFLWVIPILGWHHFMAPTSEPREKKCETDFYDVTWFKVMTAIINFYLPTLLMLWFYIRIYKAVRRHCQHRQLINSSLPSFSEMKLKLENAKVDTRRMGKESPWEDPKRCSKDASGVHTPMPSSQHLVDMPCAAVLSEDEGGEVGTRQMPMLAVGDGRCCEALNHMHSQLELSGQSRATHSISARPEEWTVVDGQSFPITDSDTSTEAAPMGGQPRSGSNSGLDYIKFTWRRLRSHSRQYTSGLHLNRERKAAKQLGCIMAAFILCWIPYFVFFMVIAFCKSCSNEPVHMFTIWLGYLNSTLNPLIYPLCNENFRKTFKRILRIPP

For the compound `O=C1CSc2c(cccc2NC(=O)c2ccc(OCc3ccc4ccccc4n3)cc2)N1` [Example 71, 8-[4-(2-Quinolinylmethoxy)benzoylamino]-3,4-dihydro-2H-1,4-benzothiazin-3-one], the inhibition at 100 µM on H1 receptor worked out at 28%; on LTD4 receptor, 0%.

On to `O=C1CS(=O)(=O)c2cc(OCc3cccc(OCc4ccc5ccc(Cl)cc5n4)c3)ccc2N1` [Example 75], for which the inhibition at 100 µM at H1 receptor worked out at 36%. Moreover, the “LTD4 receptor (%), inhibition rate” value on LTD4 receptor (concentration not given) was found to be 0%.

As for `O=C1CCS(=O)(=O)c2cc(OCc3cccc(OCc4ccc5ccccc5n4)c3)ccc2N1` [Example 76], the Kd at H1 receptor was determined as 122 µM. On LTD4 receptor, the inhibition at 100 µM stood at 0%.

For the compound `Cn1c(COc2cccc(COc3ccc4c(c3)S(=O)(=O)CC(=O)N4)c2)nc2ccccc21` [Example 79, 7-[3-(N-Methylbenzimidazol-2-yl-methoxy)benzyloxy]-3,4-dihydro-2H-1,4-benzothiazin-3-one 1,1-dioxide], the inhibition at 100 µM at H1 receptor was 43%. Further, the inhibition at 10 µM on LTD4 receptor was 42%.

Turning to `O=C1CS(=O)(=O)c2cc(NC(=O)c3cccc(OCc4ccc5ccccc5n4)c3)ccc2N1` [Example 80], the inhibition at 100 µM on H1 receptor was found to be 36%. Also, the inhibition at 10 µM at LTD4 receptor is 27%.

For `O=C1CCCc2cc(OCc3cccc(OCc4ncc5ccccc5n4)c3)ccc2N1` [Example 82, 7-[3-(2-quinazolinylmethoxy)benzyloxy]-2,3,4,5-tetrahydro-1H-benz[b]azepin-2-one], the inhibition at 10 µM on H1 receptor worked out at 5%. For the same compound, on LTD4 receptor, the Kd is 60 nM.

For the compound `Cn1c(COc2cccc(COc3ccc4c(c3)CCCC(=O)N4)c2)nc2ccccc21` [Example 83], the inhibition at 10 µM at H1 receptor was determined as 0%. On LTD4 receptor, the Kd turned out to be 310 nM.

As for `O=C1NCCCc2cc(OCc3cccc(OCc4ccc5ccccc5n4)c3)ccc21` [Example 84, 7-[3-(2-quinolinylmethoxy)benzyloxy]-2,3,4,5-tetrahydro-1H-benz[c]azepin-1-one], the results for the Kd at H1 receptor and on LTD4 receptor were 66.4 µM and 26 nM, respectively.

With `O=C1NCCCc2cc(OCc3ccc(OCc4ccc5ccccc5n4)cc3)ccc21` [Example 85, 7-[4-(2-quinolinylmethoxy)benzyloxy]-2,3,4,5-tetrahydro-1H-benz[c]azepin-1-one], the Kd was 53.1 µM on H1 receptor and 115 nM on LTD4 receptor.

Take `O=C1NCCCc2cc(OCc3cccc(OCc4ncc5ccccc5n4)c3)ccc21` [Example 86, 7-[3-(2-quinazolinylmethoxy)benzyloxy]-2,3,4,5-tetrahydro-1H-benz[c]azepin-1-one]: the inhibition at 10 µM at H1 receptor is 9%. The dissociation constant (Kd) at LTD4 receptor is 92.8 nM.

In the case of `O=C1CCCc2cc(OCc3cccc(OCc4ncc5ccccc5n4)c3)ccc21` [Example 90, 6-[3-(2-quinazolinylmethoxy)benzyloxy]-1-tetralone], at H1 receptor, the inhibition at 10 µM is 8%. Further, on LTD4 receptor, the Kd came out at 12.9 nM.

For the compound `O=C1CSc2cc(N=Cc3cccc(OCc4ccc5ccccc5n4)c3)ccc2N1` [Example 91, 7-[3-(2-quinolinylmethoxy)benzylidenamino]-3,4-dihydro-2H-1,4-benzothiazin-3-one], the equilibrium dissociation constant (Kd) on H1 receptor turned out to be 0.12 µM. For the same compound, on LTD4 receptor, the inhibition at 10 µM amounted to 37%.

Regarding `O=C1CSc2cc(N=Cc3ccc(OCc4ccc5ccccc5n4)cc3)ccc2N1` [Example 92, 7-[4-(2-quinolinylmethoxy)benzylidenamino]-3,4-dihydro-2H-1,4-benzothiazin-3-one], on H1 receptor, the equilibrium dissociation constant (Kd) amounted to 0.12 µM. For the same compound, the inhibition at 10 µM on LTD4 receptor was found to be 0%.

With `O=C1CSc2c(N=Cc3cccc(OCc4ccc5ccccc5n4)c3)cccc2N1` [Example 93, 8-[3-(2-quinolinylmethoxy)benzylidenamino]-3,4-dihydro-2H-1,4-benzothiazin-3-one], the inhibition at 10 µM on H1 receptor is 38%. The dissociation constant Kd on LTD4 receptor was found to be 1510 nM.

For `O=C1CSc2cc(NCc3cccc(OCc4ccc5ccccc5n4)c3)ccc2N1` [Example 94, 7-[3-(2-quinolinylmethoxy)benzylamino]-3,4-dihydro-2H-1,4-benzothiazin-3-one], the inhibition at 10 µM on H1 receptor came to 37%. Besides, the Kd at LTD4 receptor turned out to be 315 nM.
